Data set [1] in a line: Rat pharmacokinetics. Format: in vivo. The following applies: male Sprague-Dawley rats, plasma, route not stated in table (IV or oral gavage 10 mL/kg of 0.3 or 0.6 mg/mL).
The target in the next data set is T1, human GLP-1R receptor (Homo sapiens, UniProt P43220).
T1 construct: expressed in transfected cells
As to the kind of experiment: GLP-1R low expression cell assay (cAMP TR-FRET, CHO-K1_hGLP-1Rlow_clone10). Format: cell-based. The conditions noted are these: CHO-K1_hGLP-1Rlow_clone10 cells, percent activation relative to control GLP-1 peptide. Here is the method:
Stable cell lines expressing high and low GLP-1R surface expression are generated in CHO-K1 cells transfected (Fugene 6) with a puromycin selectable DNA plasmid encoding human GLP-1R receptor (accession number: NM_002062.5) under control of an EF1A promoter. Transfected cells are seeded into 24-well plates (9,000 cells/well) containing complete medium and incubated in a humidified incubator at 37° C. with 5% carbon dioxide. After overnight incubation, medium is replaced with complete medium supplemented with puromycin (6 μg/mL) and refreshed every 2-3 days to select for stably transfected cells. Individual pools of selected cells are expanded prior to analysis for responsiveness to GLP-1 control peptide using a TR-FRET assay to detect cAMP (LANCE Ultra cAMP Assay, Perkin Elmer). Briefly, cells are collected in Versene solution, plated in 384-well plates (1,000 cells/well) and combined with serially diluted GLP-1R control peptide (10 nL) using an acoustic dispenser (ECHO). Plates are incubated for 30 minutes at 25° C. prior to the addition of EU-cAMP tracer (5 μL) and Ulight-anti-cAMP (5 μL) reagents to each well, followed by 15 minutes incubation at 25° C. TR-FRET signal is detected using an EnVision Multimode Plate Reader (excitation=320 nm; emission=615 and 655 nm). Dose-response curves are used to generate EC50 values as a measure of responsiveness to the GLP-1R control peptide. Selected cell lines are monitored for responsiveness over multiple passages to ensure stability. […] Briefly, GLP-1R expression is analyzed by flow cytometry using a fluorescein-labeled Exendin-4 peptide fluorescent probe (FLEX). Cells are harvested in Versene solution and washed 3-times with PBS+0.5% BSA before incubation with FLEX reagent (10 μM) for 2 hours at room temperature. After incubation, cells are washed 3-times in PBS+0.5% BSA before final resuspension in PBS prior to analysis by flow cytometry to measure FLEX mean fluorescence intensity (MFI) as a measure of GLP-1R expression on the cell surface.
For compound testing in the CHO-K1_hGLP-1Rlow_clone10 cell lines, cells are seeded in 384-well plates (1,000 cells/well). Test compounds are serially diluted in DMSO (10-point, 3-fold dilution), added to wells using an ECHO dispenser (10 nL/well) and plates are centrifuged for 1 min and agitated for 2 min at room temperature prior to 30-minute incubation at 25° C. After incubation, Eu-cAMP (5 μL) and Ulight-anti-cAMP (5 μL) reagents are added to each well, followed by centrifugation for 1 minute, agitation for 2 minutes at room temperature, and final incubation of the plates at 25° C. for 15 minutes. Plates are read using an EnVision microplate reader (excitation=320 nm; emission=615 and 655 nm). Dose-response curves are generated from duplicate wells based on percent activation calculated relative to a control GLP-1 peptide agonist that was run in parallel. EC50 values are determined by fitting percent activation as a function of compound concentration using the Hill equation (XLfit).
Stable cell lines expressing high and low GLP-1R surface expression were generated in CHO-K1 cells transfected (Fugene 6) with a puromycin selectable DNA plasmid encoding human GLP-1R receptor (accession number: NM_002062.5) under control of an EF1A promoter. Transfected cells were seeded into 24-well plates (9,000 cells/well) containing complete medium and incubated in a humidified incubator at 37° C. with 5% carbon dioxide. After overnight incubation, medium was replaced with complete medium supplemented with puromycin (6 μg/mL) and refreshed every 2-3 days to select for stably transfected cells. Individual pools of selected cells were expanded prior to analysis for responsiveness to GLP-1 control peptide using a TR-FRET assay to detect cAMP (LANCE Ultra cAMP Assay, Perkin Elmer).
(Time-resolved FRET reads energy transfer from a long-lived donor to a nearby acceptor.)

The nature of data set [2]: Rat pharmacokinetics. Details: AUC: concentration or dose not given beside the values. The conditions noted are these: male Sprague-Dawley rats, plasma, route not given; for half-life: read-out: Rat T1/2 (converted). Format: in vivo. Here is the method: Intravenous dosing: Compounds were formulated at 0.5 mg/mL in a solution comprising 5% polyethylene glycol 400 and 95% (12% (w/v) sulfobutyl-β-cyclodextrin in water) (v/v). Formulated compounds were sterile filtered through a 0.22 micron filter before dosing. Compounds were administered to male, 7-11-week-old Sprague-Dawley rats by jugular vein cannula infusion over 30 minutes at a dose of 1 mg/kg. […]
Sample collection: Blood collections of about 0.2 mL per time point were performed from jugular vein or other suitable site of each animal, into pre-chilled commercial EDTA-K2 tubes and placed on wet ice until centrifugation. Blood samples were processed for plasma by centrifugation at approximately 4° C., 3,200 g for 10 min. Plasma was collected and transferred into pre-labeled 96 well plate or polypropylene tubes, quick frozen over dry ice and kept at −60° C. or lower until LC-MS/MS analysis.
Data analysis: Plasma concentration versus time data was plotted in graph and analyzed by non-compartmental approaches using the Phoenix WinNonlin 6.3 software program. Related PK parameters were calculated according to dosing route, e.g., CL, Vdss and C0 for intravenous administration, Cmax, Tmax or % F for extravascular administration, and T1/2, AUC(0-t), AUC(0-inf), MRT(0-t), MRT(0-inf) for all routes.

Data set [3] in a line: Passive permeability and efflux ratio (Caco-2). Format: in vitro ADME. The following applies: human. How it is done: Caco-2 cells (clone C2BBe1) are obtained, e.g., from American Type Culture Collection (Manassas, VA). Cell monolayers are grown to confluence on collagen-coated, microporous membranes in 12-well assay plates. The permeability assay buffer is Hanks' balanced salt solution containing 10 mM HEPES and 15 mM glucose at a pH of 7.4. The buffer in the receiver chamber also contains 1% bovine serum albumin. The dosing solution concentration is 5 μM of test article in the assay buffer. Cell monolayers are dosed on the apical side (A-to-B) or basolateral side (B-to-A) and incubated at 37° C. with 5% CO2 in a humidified incubator. Samples are taken from the donor and receiver chambers at 120 minutes. Each determination is performed in duplicate. The flux of lucifer yellow is also measured post-experimentally for each monolayer to ensure no damage is inflicted to the cell monolayers during the flux period. All samples are assayed by LC-MS/MS using electrospray ionization. The apparent permeability (Papp) and percent recovery were calculated as follows: Papp=(dCr/dt)×Vr/(A×CA) (1) Percent Recovery=100×((Vr×Cr^final)+(Vd×Cd^final))/(Vd×CN) (2), where, dCr/dt is the slope of the cumulative receiver concentration versus time in μM s^−1; Vr is the volume of the receiver compartment in cm^3; Vd is the volume of the donor compartment in cm^3; A is the area of the insert (1.13 cm^2 for 12-well); CA is the average of the nominal dosing concentration and the measured 120-minute donor concentration in μM; CN is the nominal concentration of the dosing solution in μM; Cr^final is the cumulative receiver concentration in μM at the end of the incubation period; Cd^final is the concentration of the donor in μM at the end of the incubation period. Efflux ratio (ER) is defined as Papp (B-to-A)/Papp (A-to-B). Rat Pharmacokinetics
Caco-2 cells (clone C2BBe1) were obtained from American Type Culture Collection (Manassas, VA). Cell monolayers were grown to confluence on collagen-coated, microporous membranes in 12-well assay plates. Details of the plates and their certification are shown below. The permeability assay buffer was Hanks' balanced salt solution containing 10 mM HEPES and 15 mM glucose at a pH of 7.4. The buffer in the receiver chamber also contained 1% bovine serum albumin. The dosing solution concentration was 5 μM of test article in the assay buffer. Cell monolayers were dosed on the apical side (A-to-B) or basolateral side (B-to-A) and incubated at 37° C. with 5% CO2 in a humidified incubator. Samples were taken from the donor and receiver chambers at 120 minutes. Each determination was performed in duplicate. The flux of lucifer yellow was also measured post-experimentally for each monolayer to ensure no damage was inflicted to the cell monolayers during the flux period. All samples were assayed by LC-MS/MS using electrospray ionization. The apparent permeability (Papp) and percent recovery were calculated as follows: Papp=(dCr/dt)×Vr/(A×CA) (1) Percent Recovery=100×((Vr×Cr^final)+(Vd×Cd^final))/(Vd×CN) (2), where, dCr/dt is the slope of the cumulative receiver concentration versus time in μM s^−1; Vr is the volume of the receiver compartment in cm^3; Vd is the volume of the donor compartment in cm^3; A is the area of the insert (1.13 cm^2 for 12-well); CA is the average of the nominal dosing concentration and the measured 120-minute donor concentration in μM; CN is the nominal concentration of the dosing solution in μM; Cr^final is the cumulative receiver concentration in μM at the end of the incubation period; Cd^final is the concentration of the donor in μM at the end of the incubation period. Efflux ratio (ER) is defined as Papp (B-to-A)/Papp (A-to-B).

T1 sequence (P43220 24-463): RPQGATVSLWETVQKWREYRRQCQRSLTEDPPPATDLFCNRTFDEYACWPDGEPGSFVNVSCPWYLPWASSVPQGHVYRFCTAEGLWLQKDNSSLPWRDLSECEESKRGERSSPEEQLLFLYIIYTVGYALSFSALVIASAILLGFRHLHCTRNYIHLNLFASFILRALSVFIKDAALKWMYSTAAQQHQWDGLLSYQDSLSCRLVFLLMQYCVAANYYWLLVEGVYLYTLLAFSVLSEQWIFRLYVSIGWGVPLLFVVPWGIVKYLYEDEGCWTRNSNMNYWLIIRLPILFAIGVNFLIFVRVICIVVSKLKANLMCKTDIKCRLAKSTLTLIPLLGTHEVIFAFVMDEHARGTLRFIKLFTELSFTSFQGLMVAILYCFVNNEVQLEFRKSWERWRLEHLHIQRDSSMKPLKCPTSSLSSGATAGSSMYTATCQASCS

As to `C[C@]1(c2ccc(C#N)cc2F)Oc2cccc(N3CCN(Cc4nc5ccc(C(=O)O)cc5n4Cc4cncs4)[C@@H]4C[C@@H]43)c2O1` [Compound 38, 2-((5-(2-(4-Cyano-2-fluorophenyl)-2-methylbenzo[d][1,3]dioxol-4-yl)-2,5-diazabicyclo[4.1.0]heptan-2-yl)methyl)-1-(thiazol-5-ylmethyl)-1H-benzo[d]imidazole-6-carboxylic Acid], the Cmax in the data set “Rat pharmacokinetics [1]” is 58.3 ± 9.74 ng/mL. On human GLP-1R receptor, this compound had an EC50 of over 100 nM. In “Rat pharmacokinetics [2]”, the AUC worked out at 109 ± 21.5 ng·h/mL and the half-life was 1.6 h.
The compound `C[C@@]1(c2ccc(C#N)cc2F)Oc2cccc(N3CCN(Cc4nc5ccc(C(=O)O)cc5n4Cc4cncs4)[C@@H]4C[C@@H]43)c2O1` [Compound 37, 2-((5-(2-(4-Cyano-2-fluorophenyl)-2-methylbenzo[d][1,3]dioxol-4-yl)-2,5-diazabicyclo[4.1.0]heptan-2-yl)methyl)-1-(thiazol-5-ylmethyl)-1H-benzo[d]imidazole-6-carboxylic Acid] returned a Cmax in the data set “Rat pharmacokinetics [1]” of 20 ± 7.7 ng/mL. Further, the EC50 at human GLP-1R receptor is under 5 nM. The same compound registered an AUC in the data set “Rat pharmacokinetics [2]” of 15.8 ± 7.6 ng·h/mL.
Take `CC1(c2ccc(C#N)cc2F)Oc2cccc(N3CCN(Cc4nc5ccc(C(=O)O)cc5n4Cc4cncs4)C4CC43)c2O1` (centres unmarked) [Compound 34, 2-((5-(2-(4-Cyano-2-fluorophenyl)-2-methylbenzo[d][1,3]dioxol-4-yl)-2,5-diazabicyclo[4.1.0]heptan-2-yl)methyl)-1-(thiazol-5-ylmethyl)-1H-benzo[d]imidazole-6-carboxylic Acid]: in data set [3] (pH 7.4, Caco-2, efflux ratio = Papp (B-to-A)/Papp (A-to-B), read-out: ER), the efflux ratio at 120 min, 5 μM was 1.82. The Papp A→B at 120 min, 5 μM in data set [3] (Caco-2, 5 μM, pH 7.4, 120 minutes) worked out at 19.9 ×10⁻⁶ cm/s. Further, on human GLP-1R receptor, the EC50 was under 5 nM.
The compound `C[C@]1(c2ccc(C#N)cc2F)Oc2cccc(N3CCN(Cc4nc5ccc(C(=O)O)cc5n4Cc4cncs4)[C@H]4C[C@H]43)c2O1` [Compound 36, 2-((5-(2-(4-Cyano-2-fluorophenyl)-2-methylbenzo[d][1,3]dioxol-4-yl)-2,5-diazabicyclo[4.1.0]heptan-2-yl)methyl)-1-(thiazol-5-ylmethyl)-1H-benzo[d]imidazole-6-carboxylic Acid] showed a peak concentration (Cmax) in the data set “Rat pharmacokinetics [1]” of 19.3 ± 2.7 ng/mL. This compound also returned an EC50 on human GLP-1R receptor of 5 to 50 nM. Besides, in the data set “Rat pharmacokinetics [2]”, the AUC came out at 20.7 ± 12.6 ng·h/mL and the half-life was 1.8 h.

By Cmax is commonly meant the peak of the concentration-time curve. Usually EC50 stands for the concentration needed to bring the measured effect to its halfway point. Usually AUC stands for the area under the concentration-time curve, a measure of exposure. A word on the Papp A→B: it is how fast a substance crosses the layer from the apical side.

The values are drawn from US12410163B2, “Compounds as GLP-IR agonists” (Terns Pharmaceuticals, Inc., priority 2022, dated 2025).
